For assay [1], the system named is adult female cynomolgus monkeys. As to the kind of experiment: Part II: titering the GnRHant dose to individual monkeys with periodic progesterone challenge tests (withdrawal bleeding versus amenorrhea, serum estradiol RIA). The assay is classed as in vivo. Here is the method:
(§1) Eleven adult female cynomolgus monkeys having regular and presumably ovulatory menstrual cycles were entered into the study. Body weights were determined monthly. Menstrual bleeding and spotting were recorded daily by visual inspection of external genitalia and insertion of vaginal swabs using a saline moistened cotton-tipped applicator, respectively. Blood samples were collected from femoral vessels and the serum stored for subsequent RIA of estradiol and progesterone. Coefficients of variation for these assays were: 7.4 and 11.1; and 7.0 and 10.9%, respectively, for within and between assays. The GnRH antagonist (GnRHant) used was Nal-Glu: [Ac-D2NAL, 4ClDPhe^2, D3Pal^3, Arg^5, DGlu^6 (AA), DAla^10 ]-GnRH.
Concurrently, a pair of progesterone-loaded silastic implants were inserted sc during GnRHant treatment from day 20 and 30, and then removed. If withdrawal menses occurred during the next week, the individual Nal-Glu dose was raised to 0.1 mg/kg daily. […] Again, amenorrhea or withdrawal menses was recorded.
For definition, withdrawal bleeding was scored when blood was on the external genitalia for two or more consecutive days within the week following progesterone withdrawal. Spotting was scored when blood was evident only by coloration of the cotton swab upon insertion into the vagina.

Assay [2] has the same test system. In words: Part I dose-finding study: residual serum estradiol (RIA) during 14 days of daily im GnRH antagonist. The class given is in vivo. Particulars: 0.1 mg/kg im daily; individual monkeys for whom the dose was too much, predominately. The method, then: as §1
In Part I of the study, the object was to perform a brief dose-finding study that indicated residual serum estradiol levels in intact primates previously illustrating regular menstrual cycles. Specifically sought was an approximation of the minimal daily im dose of Nal-Glu sufficient to suppress circulating estradiol levels into the target range: less than 45 pg/ml but more than 35 pg/ml. Beginning on day 2 of the menstrual cycle, Nal-Glu GnRHant, suspended in sesame oil, was administered between 9 and 10 am in doses of 0.1 (n=5) and 0.3 mg/kg (n=6) for 14 days. Femoral blood was obtained daily under ketamine anesthesia. […]

Another assay has as its system pituitary-ovarian axis. Conditions: sufficient single dose, monkeys, follicular phase; cited from earlier work.

The values that follow come from patent publication US5658884A, “Establishment of tonic ovarian estrogen secretion for extended therapeutic regimens” (The Medical College of Hampton Roads, priority 1995, dated 1997).

Values joined by “and” are separate entries in the source; they are usually repeats but may differ in a detail not shown here. Equal entries are not always repeated.

“[Ac-D2NAL, 4ClDPhe^2, D3Pal^3, Arg^5, DGlu^6 (AA), DAla^10 ]-GnRH [Nal-Glu]”: the “mean serum estradiol concentrations” value in assay [1] (8 monkeys after increase of the dose to 0.1 mg/kg im daily) is reported as “approximately 40 pg/ml”. The “Amenorrhea Achieved (Monkeys)” value in assay [1] (first progesterone challenge test, withdrawal week days 31-37, all 11 monkeys at 0.05 mg/kg im daily) was “two and 2/11”; in assay [1] (second progesterone challenge test, withdrawal week days 61-67, doses 0.05 or 0.1 mg/kg im daily), 10/11; in assay [1] (third progesterone challenge test, withdrawal week days 91-97, doses 0.05, 0.1 or 0.2 mg/kg im daily), “all eleven and 11/11”. Moreover, the “monkeys manifesting frank withdrawal menses” value in assay [1] (first progesterone challenge test, 0.05 mg/kg im daily) is on record as “Nine”. Also, in assay [1] (lone resistant monkey at 0.2 mg/kg im daily, ultimately), the serum estradiol entry was “under 20 pg/ml”. In addition, the “withdrawal outcome of the two monkeys that remained on 0.05 mg/kg” value in assay [1] (second progesterone challenge test, 0.05 mg/kg im daily) is on record as “remained amenorrheic”. Moreover, the “monkeys achieving withdrawal amenorrhea” value in assay [1] (second progesterone challenge test, the nine females raised to 0.1 mg/kg im daily on day 31) was 8 of 9. The “mean serum estradiol levels” value in assay [1] (the two primates amenorrheic at 0.05 mg/kg im daily, target zone 35 to 45 pg/ml) was “hovered in or near the target zone”. The “Incidence of Spotting” value in assay [1] (week of progesterone withdrawal days 31-37, 0.05 mg/kg im daily) worked out at 13 days; in assay [1] (week of progesterone withdrawal days 61-67, 0.05 or 0.1 mg/kg im daily), 12 days; in assay [1] (week of progesterone withdrawal days 91-97, 0.05, 0.1 or 0.2 mg/kg im daily), 0 days. In addition, the “serum estradiols of some primates” value in assay [2] was less than 25 pg/mL.
Consider “D-Ac-D-2-Nal^1 -DpClPhe^2 -D-3-Pal^3 -Ser^4 -NiLys^5 -D-NicLys^6 -Leu^7 -ILys^8 -Pro^9 -D-Ala^10 [antide]”, for which the “effect on the pituitary-ovarian axis” value with pituitary-ovarian axis is “immediate and sustained inhibition of the pituitary-ovarian axis”.
